Patent US20230295235A1, “COMPOUNDS TARGETING ALPHA4-BETA7 INTEGRIN” (ZEALAND PHARMA A/S, priority 2020, published 2023)

Key:
[1] = tested on: DSS induced ulcerative colitis; experiment: DSS induced chronic colitis (ulcerative colitis) mouse model; type: in vivo
Procedure: The current study was conducted in the mice model of dextran Sodium Sulfate (DSS) induced ulcerative colitis (UC). DSS induces chronic colitis in experimental animals when given orally in drinking water for 7 days followed by no DSS in drinking water. Chronic intestinal inflammation is associated with body weight loss, diarrhea, blood in the stool and the infiltration of leucocytes from the blood to intestinal tissue. Among those cells, subpopulations of T lymphocytes such as Th1 and Th17 play an important role in the initiation and chronicity of inflammation. Trafficking of T cells from blood to target tissue is a complex process that is controlled by molecularly distinct adhesion and signaling steps. As such, the α4β7 and MAdCAM-1 adhesion mechanism may be closely involved in lymphocyte trafficking to the site of inflammation in the gut.
Evaluation of the therapeutic potential of the compound of Example 1 (cpd 1) in a mouse model of Dextran Sodium Sulfate (DSS) induced ulcerative colitis (UC)
Female C57BI/6 mice (Charles River, St-Constant, Qc), weighting 15-20 g at delivery were used for this study. Following arrival in the animal facility, all animals were subjected to a general health evaluation. […]
Specific symptoms associated to UC were scored based on the severity of each particular symptoms: • 1- blood in stool (negative hemoccult, positive hemoccult, visible blood traces in stool, rectal bleeding); • 2- stool consistency (normal, soft, diarrhea); • 3- body weight loss (score 0: 0-1 %; 1: 1.5-5%; 2: 5.5-10%; 3: 10.5-15 %; 4: 15.5-20 %; 5: >20%). […]
Once the mouse was euthanized, the colon was collected, and its length was measured. Lesion length was also measured. Colon lesions was scored macroscopically based on inflammation, thickening and vascularization to give an overall macroscopic inflammation score of each animal in the study. […]
Statistical differences among groups were determined using a two-way ANOVA, followed by a post-hoc analysis, using Tukey’s multiple comparison test, to compare each group to the DSS+vehicle control group. […]

[2] = tested on: integrin α4β7+ T helper memory lymphocytes in mesenteric lymph nodes; experiment: In vivo T lymphocyte trafficking analysis in DSS mouse model of colitis
Procedure: Animal care: The animal care facility employed is accredited by the Canadian Council on Animal Care (CCAC). This study was approved by a certified Animal Care Committee and complied with CACC standards and regulations governing the use of animals for research. The animals were housed under standardized environmental conditions. A standard certified commercial rodent diet was provided ad libitum. Tap water was provided ad libitum at all times.
Dextran sulfate sodium (DSS) was administered to C57BL/6 female mice for five days through addition to their drinking water at 3%. Body weight and disease activity index (“DAI”) were measured on day 5 in order to distribute DSS-treated animals in uniform groups prior to dosing. DAI was scored based on the severity of three specific symptoms associated with colitis: 1- blood in stool (negative hemoccult, positive hemoccult, blood traces in stool visible, rectal bleeding); 2- stool consistency (normal, soft but still formed, very soft, diarrhea); 3- body weight loss.
From day 6 to day 9, the compound of Example 1 or the vehicle were administered orally daily at 5 mL/kg. […] Cell populations were then analyzed using FACSCanto cytometer and gating on CD4+, CD44^hi, CD45RB^low, α4β7+.
Statistical analysis was performed using GraphPad Prism. Differences among groups were evaluated by two-way ANOVA, with a 95% confidence interval. […]

Compound: CC(C)C[C@@H]1NC(=O)c2ccc(-c3ccc(N4CCN(C(=O)c5ccccc5-c5ccccc5C(=O)N5CCN(c6ccc(-c7ccc8cc7CNC(=O)[C@@H]7CCCN7[C@H](C(=O)NC(C)(C)C)[C@H](C)NC(=O)[C@H]([C@@H](C)O)NC(=O)[C@H](CC(=O)O)NC(=O)[C@H](CC(C)C)NC8=O)cc6)CC5)CC4)cc3)c(c2)CNC(=O)[C@@H]2CCCN2[C@H](C(=O)NC(C)(C)C)[C@H](C)NC(=O)[C@H]([C@@H](C)O)NC(=O)[C@H](CC(=O)O)NC1=O [Example 1, 2,2′-((S,S,S,S,S,S,1^2,8S,11S,14S,17S,18S)-((([1,1′-Biphenyl]-2,2′-Dicarbonyl)-Bis(Piperazine-4,1-Diyl))Bis(4,1-Phenylene))Bis(18-(Tert-Butylcarbamoyl)-14-((R)-1-Hydroxyethyl)-8-Isobutyl-17-Methyl-2,6,9,12,15-Pentaoxo-3,7,10,13,16-Pentaaza-1(2,1)-Pyrrolidina-5(1,3)-Benzenacyclooctadecaphane-5^6,11-Diyl))-Diacetic Acid]
- effect on DAI score ([1]; 100 mg/kg p.o. once daily day 0-14, DSS mice, vs DSS + vehicle): did not lead to any beneficial effect
- macroscopic inflammation score, % less than DSS + vehicle ([1]; 100 mg/kg p.o. once daily day 0-14, colon at day 14, significant difference): around 30%
- MPO U/g colon protein, % less than DSS + vehicle ([1]; 100 mg/kg p.o. once daily day 0-14, medio-distal colon, ELISA, not statistically significant): approximately 49%
- reduction in α4β7+ T cells in the mesenteric lymph nodes ([2]; 100 mg/kg orally daily day 6 to 9, DSS-treated C57BL/6 female mice, vs DSS alone): 60%
- detection of integrin α4β7+ T helper memory lymphocytes in the mesenteric lymph nodes (MLN) ([2]; 10, 30 or 100 mg/kg orally daily day 6 to 9, DSS-treated mice): reduced the detection of integrin α4β7+ T helper memory lymphocytes
